Where two headings read alike, the source gives them in different places.
Key:
[1] = system: p-p53 (Ser15), p21, p-H2A.X (Ser139), p-ATM (Ser1981), p-Chk1 (Ser345) in HepG2 cells
Protocol: (§1) HepG2 cells (Order No. HB-8065, Lot. 58483209, ATCC, Manassas, USA) were cultured in DMEM/F12 with L-Glutamine and 15 mM Hepes supplemented with 10% (v/v) FBS, 1% (v/v) penicillin (10 kU/ml)/streptomycin (10 mg/ml) solution, 0.1% (v/v) gentamicin (50 mg/ml), and 1 mM sodium pyruvate at 37° C. and 5% CO2 in culture flasks. Depending on the experiment, an appropriate number of cells were seeded onto plates after detaching of the cells using trypsin and cells were cultured at 37° C. and 5% CO2 for 24 h prior to treatment. All experiments were performed three times with cells of passages 4-20.
(§2) Cells were seeded onto black Poly-D-Lysin coated 96-well-plates (BD Biocoat, Franklin Lakes, USA) (0.02×10^6 cells/well) and left 24 h for adherence and then treated with test compounds at a maximum concentration of 1 mM which is recommended by the ICH S2(R1) guideline (EMA, 2011). For each compound, nine concentrations were tested with 2-fold serial dilutions. DMSO 1% (v/v) served as vehicle control for the experiments. The treatment procedure was different for direct-genotoxic and pro-genotoxic compounds. The treatment for direct genotoxic compounds was ongoing and was repeated daily over 48 h. Pro-genotoxic compounds were incubated for 6 h together with metabolic activation system (to limit the cytotoxic effect of the S9-mixture). After this period, cells were washed with cell media followed by 18-repeated daily over 48 h. The metabolic activation system used consisted of the following components and concentrations: 8 mM MgCl2, 32.8 mM KCl, 12 mM NADPH, 124 mM phosphate buffer and 2500 pmol/ml cytochrome P450 (CYP) content in the pre-mixture corresponding to 2.4 mM MgCl2, 9.8 mM KCl, 3.6 mM NADPH, 37.2 mM phosphate buffer, and 750 pmol/ml CYP as final concentrations after dilution 1:3.33 with cell culture media.
Two different staining procedures were performed for each compound with and without metabolic activation system:
After treatment, cells were rinsed with PBS (Gibco Invitrogen, Karlsruhe, Germany), and then fixed with 3.7% formaldehyde (Sigma-Aldrich, Taufkirchen, Germany) in PBS for 20 min. After an additional washing step with PBS, cells were blocked and permeabilized with 2% donkey serum (Millipore, Schwalbach, Germany) and 0.25% Triton X-100 (Sigma-Aldrich, Taufkirchen, Germany) in PBS for 30 min. Primary antibodies were diluted to final concentrations of 2 μg/ml anti-p-p53 (Ser15) rabbit monoclonal antibody IgG (Invitrogen, Karlsruhe, Germany), 0.8 μg/ml anti-p21 goat polyclonal antibody IgG, (R&D systems, Minneapolis, USA); 4 μg/ml anti-p-Histone H2A.X (Ser139) mouse monoclonal antibody IgG1 (Millipore, Schwalbach, Germany) in Blocking/Permeabilization solution were added afterwards. After incubation for 16-18 h, cells were washed with 0.05% Tween 20 (Calbiochem, Darmstadt, Germany) in PBS and the secondary antibody/16 μM Hoechst staining solution in Blocking/Permeabilization solution was added. Secondary antibodies were diluted 1:400 (Alexa Fluor 488 donkey anti-rabbit, Alexa Fluor 555 donkey anti-goat, Alexa Fluor 647 donkey anti-mouse, Invitrogen, Karlsruhe, Germany). After an incubation of 1 h, followed by two additional washing steps with 0.05% Tween 20, cells were washed with PBS and finally PBS was added and cells were measured.
After treatment, cells were rinsed with PBS (Gibco Invitrogen, Karlsruhe, Germany), and then stained with 10 μM CellTracker Green 5-Chloromethylfluorescein Diacetate (CMFDA) (Invitrogen, Karlsruhe, Germany) in cell culture media for 30 min. CMFDA is per se non-fluorescent and is hydrolyzed by esterase in viable cells to a fluorescent-dye. The reaction with thiol groups leads to a cell-impermeable fluorescent-dye-adduct. The esterase activity can be used as an indicator for viability of cells (Papadopoulos et al., 1994, J Immunol Methods 177, 101-11). Afterwards, cells were washed with PBS and fixed with 3.7% Formaldehyde (Sigma-Aldrich, Taufkirchen, Germany) in PBS for 20 min.

HepG2 cells = assay: High content imaging cytotoxicity parameters: selected cell count per valid field (SCC) and CMFDA cytoplasm average intensity; conditions: 48 h
Protocol: as §1, §2
After treatment, cells were rinsed with PBS (Gibco Invitrogen, Karlsruhe, Germany), and then stained with 10 μM CellTracker Green 5-Chloromethylfluorescein Diacetate (CMFDA) (Invitrogen, Karlsruhe, Germany) in cell culture media for 30 min. CMFDA is per se non-fluorescent and is hydrolyzed by esterase in viable cells to a fluorescent-dye. The reaction with thiol groups leads to a cell-impermeable fluorescent-dye-adduct. The esterase activity can be used as an indicator for viability of cells (Papadopoulos et al., 1994, J Immunol Methods 177, 101-11). Afterwards, cells were washed with PBS and fixed with 3.7% Formaldehyde (Sigma-Aldrich, Taufkirchen, Germany) in PBS for 20 min. After that, cells were washed with PBS and blocked and permeabilized with 2% donkey serum (Millipore, Schwalbach, Germany) and 0.25% Triton X-100 (Sigma-Aldrich, Taufkirchen, Germany) in PBS for 30 min. Primary antibodies were diluted in Blocking/Permeabilization solution to final concentrations of 4 μg/ml anti-p-Chk1 (Ser345) goat polyclonal antibody IgG (santa cruz, Santa Cruz, USA), 4 μg/ml anti-p-ATM (Ser1981) mouse monoclonal antibody IgG1K (Millipore, Schwalbach, Germany) and added to the cells. After incubation for 16-18 h, cells were washed with 0.05% Tween 20 (Calbiochem, Darmstadt, Germany) in PBS, and the secondary antibody/16 μM Hoechst staining solution Blocking/Permeabilization solution was added. Secondary antibodies were diluted 1:400 (Alexa Fluor 555 donkey anti-goat, Alexa Fluor 647 donkey anti-mouse, Invitrogen, Karlsruhe, Germany). After an incubation of 1 h, followed by two additional washing steps with 0.05% Tween 20, cells were washed with PBS and finally PBS was added and cells were measured.
Image acquisition was performed on the ArrayScan VTI HCS Reader (Cellomics, Pittsburgh, USA) using a 20× objective. To detect enough cells, 50 images starting at the middle of each well were gathered.
• Channel 1: selected cell count per valid field • Channel 2: CMFDA cytoplasm average intensity • Channel 3: p-Chk1 (Ser345) nucleus average intensity • Channel 4: p-ATM (Ser1981) nucleus average intensity

p-ATM (Ser1981) = assay: High content imaging of p-ATM (Ser1981) nucleus average intensity; format: cell-based, human; conditions: HepG2 cells, 48 h; fold-change over vehicle control, threshold 1.8
Protocol: as §1
Cells were seeded onto black Poly-D-Lysin coated 96-well-plates (BD Biocoat, Franklin Lakes, USA) (0.02×10^6 cells/well) and left 24 h for adherence and then treated with test compounds at a maximum concentration of 1 mM which is recommended by the ICH S2(R1) guideline (EMA, 2011). […]
After treatment, cells were rinsed with PBS (Gibco Invitrogen, Karlsruhe, Germany), and then stained with 10 μM CellTracker Green 5-Chloromethylfluorescein Diacetate (CMFDA) (Invitrogen, Karlsruhe, Germany) in cell culture media for 30 min. […] After an incubation of 1 h, followed by two additional washing steps with 0.05% Tween 20, cells were washed with PBS and finally PBS was added and cells were measured.
Image acquisition was performed on the ArrayScan VTI HCS Reader (Cellomics, Pittsburgh, USA) using a 20× objective. […]

[2] = HepG2 cells ± S9, 48 h, positive if at least one of five proteins shows fold-change above threshold (2.1 p-Chk1, p-H2A.X; 1.8 p21, p-ATM; 1.9 p-p53)
[3] = HepG2 cells, CMFDA cytoplasm average intensity, with rat liver S9 (+S9)
[4] = HepG2 cells, CMFDA cytoplasm average intensity, without metabolic activation (−S9)
[5] = HepG2 cells, selected cell count per valid field, with rat liver S9 (+S9)
[6] = HepG2 cells, selected cell count per valid field, without metabolic activation (−S9)

## Cc1ccc(N)cc1N [2,4-diaminotoluene]
[1]; [2]
  result for the five protein markers tested (compound set as positive or negative): no positive result
HepG2 cells; [3]
  CMFDA +S9 highest conc. <50% cytotox. over control: 1000 µM
HepG2 cells; [4]
  CMFDA −S9 highest conc. <50% cytotox. over control: 1000 µM
HepG2 cells; [5]
  SCC +S9 highest conc. <50% cytotox. over control: 1000 µM
HepG2 cells; [6]
  SCC −S9 highest conc. <50% cytotox. over control: 1000 µM

## [Cl][Cd][Cl] [Cadmium chloride]
[1]; [2]
  result for the five protein markers tested (compound set as positive or negative): no positive result
HepG2 cells; [3]
  CMFDA +S9 highest conc. <50% cytotox. over control: 62.5 µM
HepG2 cells; [4]
  CMFDA −S9 highest conc. <50% cytotox. over control: 62.5 µM
HepG2 cells; [5]
  SCC +S9 highest conc. <50% cytotox. over control: 125 µM
HepG2 cells; [6]
  SCC −S9 highest conc. <50% cytotox. over control: 31.25 µM

## CN(C)N=O [Dimethylnitrosamine]
[1]; [2]
  result for the five protein markers tested (compound set as positive or negative): no positive result
HepG2 cells; [3]
  CMFDA +S9 highest conc. <50% cytotox. over control: 1000 µM
HepG2 cells; [4]
  CMFDA −S9 highest conc. <50% cytotox. over control: 1000 µM
HepG2 cells; [5]
  SCC +S9 highest conc. <50% cytotox. over control: 1000 µM
HepG2 cells; [6]
  SCC −S9 highest conc. <50% cytotox. over control: 1000 µM

## CCN(N=O)C(N)=O [Ethylnitrosourea]
[1]; [2]
  result for the five protein markers tested (compound set as positive or negative): no positive result
HepG2 cells; [3]
  CMFDA +S9 highest conc. <50% cytotox. over control: 1000 µM
HepG2 cells; [4]
  CMFDA −S9 highest conc. <50% cytotox. over control: 1000 µM
HepG2 cells; [5]
  SCC +S9 highest conc. <50% cytotox. over control: 1000 µM
HepG2 cells; [6]
  SCC −S9 highest conc. <50% cytotox. over control: 1000 µM

## C=CCc1ccc(O)c(OC)c1 [Eugenol]
[1]
  result for the five protein markers tested (compound set as positive or negative): positive
HepG2 cells; human
  CMFDA +S9 highest conc. <50% cytotox. over control: 125 µM
  CMFDA −S9 highest conc. <50% cytotox. over control: 1000 µM
  SCC +S9 highest conc. <50% cytotox. over control: 125 µM
  SCC −S9 highest conc. <50% cytotox. over control: 1000 µM

## c1ccc2c(c1)ccc1ccccc12 [Phenanthrene]
p-ATM (Ser1981)
  result for p-ATM (Ser1981): positive
HepG2 cells; human
  CMFDA +S9 highest conc. <50% cytotox. over control: 1000 µM
  CMFDA −S9 highest conc. <50% cytotox. over control: 1000 µM
  SCC +S9 highest conc. <50% cytotox. over control: 1000 µM
  SCC −S9 highest conc. <50% cytotox. over control: 1000 µM

## CCCOC(=O)c1cc(O)c(O)c(O)c1 [Propyl gallate]
[1]
  result for the five protein markers tested (compound set as positive or negative): positive
HepG2 cells; human
  CMFDA +S9 highest conc. <50% cytotox. over control: 1000 µM
  CMFDA −S9 highest conc. <50% cytotox. over control: 1000 µM
  SCC +S9 highest conc. <50% cytotox. over control: 1000 µM
  SCC −S9 highest conc. <50% cytotox. over control: 500 µM

From patent publication US20150140123A1, “Protein expression analyses for identifying genotoxic compounds” (Merck Patent GmbH, priority 2012, published 2015)
